“And” between values parts separate entries of the source, which are not always exact repeats. Equal values may be shown once.
Experiments:
[1] = system: BalbC mice; assay: Bronchial hyper-reactivity in ovalbumin-sensitised, ovalbumin-challenged mouse model of asthma; assay type: in vivo; settings: nebulised 3 μM; methacholine up to and including 30 mg/ml
Experimental: FIG. 13. The calcilytic, NPS89636, prevents ovalbumin-induced BHR in methacholine challenged mice. Mice were sensitised on days 0 and 5 by an i.p. injection of 100 microgram/mouse of ovalbumin (OVA) and 50 mg/mouse aluminium hydroxide in PBS. Fourteen days after the last injection, mice were challenged by inhalation of a 0.5% OVA aerosol in PBS twice on the same day, 4 h apart. Mice were treated with nebulised NPS89636 (3 micromolar) or vehicle (0.3% DMSO) one hour before and three hours after the last OVA exposure. Measurements of BHR following methacholine challenge were taken by plethysmography 24 hours before and after the last OVA inhalation challenge.
Penh was recorded by plethysmography during methacholine challenge, as above (Penh before treatment). 24 hours later, the mice were challenged with 0.5% nebulised OVA (in PBS w/v) in the absence or presence of nebulised NPS89636 (or 0.3% DMSO vehicle) by inhalation. The time-course of this challenge protocol consisted of: […]
Male BalbC mice (˜25 g) purchased from Harlan and allowed to acclimatise for 1 week prior to experiment. […] Thirteen days after the last injection, Penh was recorded by plethysmography during methacholine challenge, as described above (Penh before treatment). […]
Bronchoalveolar lavage was performed using three times 1 ml of PBS and the BALF was collected for the quantification of inflammatory cells. […]

[2] = Plasma ionised Ca2+ in BalbC mice after nebulised calcilytic treatment; assay type: in vivo, mouse
Experimental: Table 1. […] At the end of the experiment, bloods were collected via opening the carotid artery. Bloods were allowed to clot for 2-3 hours and spun down at 3000 g for 10 min at 4° C. Collected samples were analysed for measurements of Ca^2+o (performed by the Biochemistry department, University Hospital of Wales). […] Accordingly, the treatment is not detrimental in mammals.

Plasma ionised Ca++, Treatment (1 hour), individual animal ([2]; 1 hour after nebulised calcilytic, single animals, hydrochloride): 0.69 mM/L and 0.88 mM/L and 0.95 mM/L
Plasma ionised Ca++, Treatment (1 hour), Average ([2]; 1 hour, average of 3): 0.84 mM/L
Plasma ionised Ca++, Treatment (4 hours), individual animal ([2]; 4 hours after nebulised calcilytic, single animals, hydrochloride): 0.98 mM/L and 0.94 mM/L and 0.96 mM/L
Plasma ionised Ca++, Treatment (4 hours), Average ([2]; 4 hours, average of 3): 0.96 mM/L
Plasma ionised Ca++, Treatment (24 hours), individual animal ([2]; 24 hours after nebulised calcilytic, single animals, hydrochloride): 1.09 mM/L and 1.1 mM/L and 0.93 mM/L
Plasma ionised Ca++, Treatment (24 hours), Average ([2]; 24 hours, average of 3): 1.04 mM/L
SMILES: CCc1ccc(CC(C)(C)NCC(O)COc2cc(-c3ccc(C(=O)O)cc3)ccc2C#N)c(F)c1.Cl (stereo in doubt) [NPS89636, (S)-4′-cyano-3′-[3-[2-(4-ethyl-2-fluorophenyl)-1,1-dimethylethylamino]-2-hydroxy-propoxy]-biphenyl-4-carboxylic acid hydrochloride]
Effect on methacholine-induced BHR in OVA-sensitised, OVA-challenged mice [1]: completely abolished

Source: patent US9861606B2, “Therapeutic for treating inflammatory lung disorders” (University College Cardiff Consultants Limited, priority 2012, dated 2018)
